Where “and” joins values, the source holds several entries; their conditions need not be identical. Equal values may be shown once. Entries after “also recorded” stand apart in the source; their conditions may differ. Where a name gives a salt, the structure may show the parent alone.
What was measured:
[1] = system: NADPH-Induced Lipid Peroxidation in Brain Microsomes; test: NADPH-induced (enzymatic) lipid peroxidation in brain microsomes (AEI); type: biochemical, rat (male Hannover-Wistar)
Protocol: Effect on the NADPH-Induced Lipid Peroxidation in Brain Microsomes
Male Hannover-Wistar rats with a body weight of 150-250 g were used for the preparation of microsomes. After decapitation, the whole brain was removed and homogenized in a 10-fold volume of ice-cold 0.25 M saccharose solution. The homogenate was centrifuged in a Hitachi CR 26H equipment at 15000 g at 4° C. for 10 minutes, then the supernatant was collected and centrifuged in a Hitachi SCP 85H apparatus at 78000 g at 4° C. for 60 minutes. After suspending the precipitate in 0.15 M KCl solution, the protein content of the obtained solution was determined and then adjusted to 10 mg/ml concentration. The microsome thus obtained was frozen in a dry ice-acetone mixture and stored at -70° C. until use. The components of the incubation mixture were: 50 mM TRIS-HCl (pH 6.8), 0.2 mM FeCl3, 1 mM KH2 PO4, 0.5 mM ADP, 0.2 mg of microsomes as well as the compound to be tested. The incubation was carried out with a final volume of 1 ml and with an incubation time of 20 minutes at a temperature of 37° C. The lipid peroxidation was induced by adding 0.4 mM NADPH.
The formation of malondialdehyde was determined by using thiobarbituric acid. After stopping the reaction, 1 ml of 1% thiobarbituric acid solution each was weighed to the samples, which were then placed in a water bath of about 100° C. for 10 minutes. Subsequently, the samples were centrifuged at 2000 g in a Janetzki K70 apparatus at 4° C. for 10 minutes. The absorbance values of the colored supernatant were measured at 535 nm in a Hitachi 150-20 spectrophotometer. Malondialdehyde bis(diethylacetal) was used as reference compound.

[2] = system: Fe^2+ -Induced Lipid Peroxidation in Brain Homogenate; test: Fe^2+-induced (non-enzymatic) lipid peroxidation in brain homogenate (ANI); type: biochemical, rat (Hannover-Wistar); settings: comparison with idebenone, DL-α-tocopherol or silymarin
Protocol: Effect on the Fe^2+ -Induced Lipid Peroxidation in Brain Homogenate
After decapitating Hannover-Wistar rats weighing 150-220 g each, the whole brain was homogenized in 9 volumes of ice-cold Krebs-Ringer's buffer containing 15 mM HEPES, (4-(2-hydroxyethyl)-1-piperazinylethanesulfonic acid) (pH 7.4), 140 mM NaCl7 3.6 mM KCl, 1.5 mM CaCl2, 0.7 mM MgCl2, 1.4 mM KH2 PO4 and 10 glucose. Then the protein content of the solution was determined and adjusted to 10 mg/ml concentration.
After adding the inhibitory agent to be tested in a volume of 5 μl to 200 μl of the homogenate, the incubation mixture was incubated at 37° C. for 20 minutes. The Fe^2+ -induced lipid peroxidation was accomplished by adding 5 μl of 8 mM Fe2 (NH4)2 (SO4)2 solution. After passing of the incubation time, the reaction was stopped by adding 1 ml of a stopping solution containing 0.8 M HCl and 12.5% trichloroacetic acid, then the samples were centrifuged at 2000 g in a Janetzki K70 apparatus at 4° C. for 10 minutes.
To a 0.5 ml portion of the supernatant, 1 ml of 1% thiobarbituric acid solution was added, then the samples were placed in a water bath of 100° C. for 20 minutes. The color intensity developed was determined at 535 nm with a Hitachi 150-20 spectrophotometer by using malondialdehyde bis(diethylacetal) as reference compound.
ANI: non-enzymatically (Fe^2+) induced lipid peroxidation test

[3] = Antiischemic effect on bilateral (carotid) artery ligation model, mortality; type: in vivo, mice
Protocol: 1. Antiischemic Effect (On Bilateral Artery Ligation Model)
N. Himori et al.: Cerebral ischemia model with conscious mice involvement of NMDA receptor activation and derangement of learning and memory ability [J. Pharmacol. Meth. 23, 311-327 (1990)].
Carotid arteries of mice (weighing 30 to 32 g each) were exposed bilaterally under anaesthesia by 450 mg/kg of intraperitoneal (i.p.) chloral hydrate. The sympathetic and vagal nerves were separated and a loose ligation was bilaterally placed below the carotid arteries. Both ends of the ligation were led out on the back, behind the ears. Next day, in conscious state both ends of the ligation were pulled resulting in the stopping of blood supply through the carotid arteries. This was maintained for 5 minutes, then released to provide the reperfusion. The number of animals died during the 5-minute period and the following 24 hours were registered. The calculation of significance was performed by the chi^2 test. The pre-treatment with the compound was carried out intraperitoneally (i.p.) 30 minutes before the ligation.
The transient dramatic decrease in the cerebral blood supply, then the starting of reperfusion after stopping the ligation leads to the formation of extremely toxic oxygen free radicals (superoxide radical, hydrogen peroxide). […] [ED50 is the dose (as mg/kg) diminishing the mortality by 50% in comparison to the untreated is control group].

[4] = Diazepam-induced anterograde amnesia (passive avoidance); type: in vivo, NMRI mice; settings: for Inhibition of the diazepam-induced amnesia %: 1 hour before learning, diazepam 3 mg/kg i.p.
Source text: 2. Diazepam-Induced Anterograde Amnesia C. L. Broekkamp et al.: The comparative effects of benzodiazepines, progabide and PK 9084 on acquisition of passive avoidance in mice [Psychopharmacology (Berlin) 83, 122-125 (1984)]. The memory test was accomplished on NMRI mice weighing 25 to 28 g each by using the passive avoidance, a method based on the genetically determined nyctophilic behavior of rodents. During the learning period, the pre-selected animals (mice entering the dark space from the illuminated space within 30 seconds) were placed in an illuminated space. After entering the dark space, the animal received an electric shock (1 mA for […]) onto its planta within 30 seconds, then the time until entry to the dark space (latency period) was registered. After 24 hours, the animals were placed again in the illuminated space and the time until crossing over to the dark space (retention time=T with a time limit of 300 seconds) was measured. For inducing an anterograde amnesia, the animals were treated intraperitoneally with 3 mg/kg of diazepam 30 minutes before learning. The compounds were administered orally in 0.1 or 10 mg/kg doses, respectively 1 hour before learning. [formula]

[5] = Antiischemic effect after oral administration; type: in vivo
[6] = "Focal" ischemia models elicited in one well-determined area of the brain; type: in vivo
[7] = Electroshock-induced retrograde amnesia model; type: in vivo; settings: oral dose range between 0.1 and 10 mg/kg
[8] = Protection against ischemia-induced injury of memory; type: in vivo; settings: oral dose range between 1 and 10 mg/kg
[9] = Antiamnesic activity in rats; type: in vivo

Compound: CC[C@@]12C=C(C(=O)OCCOC(C)=O)n3c4c(c5ccccc53)CCN(CCC1)[C@@H]42 [Compound 2705279, (-)-trans apovincaminic acid 2-acetoxyethyl ester(3β,16α)monohydrochloride]
- IC50 ([1]; NADPH-induced lipid peroxidation, rat brain microsomes, 37° C., 20 minutes, pH 6.8): 6.3 µM and < 10 µM
- antioxidant effect in NADPH-induced lipid peroxidation, in words ([1]; comparison with reference compounds): comparable to that of idebenone
- antioxidant activity compared with idebenone or vinpocetine, in words ([1]; summary statement, in vitro and in vivo): surpasses both in vitro and in vivo that of idebenone or vinpocetine
- antioxidant activity in Fe^2+-induced lipid peroxidation, in words [2]: about twice as active as idebenone or DL-α-tocopherol
- mortality at 2 mg/kg ([3]; Mus musculus, ip, 24 h, 2 mg/kg i.p., 30 minutes before 5-minute bilateral carotid ligation, control mortality 70%): 10 to 30%
- ED50 ([3]; Mus musculus, ip, dose diminishing the mortality by 50% in comparison to the untreated control group): 0.76 mg/kg
- antiischemic activity, in words ([3]; bilateral artery ligation, mice, 2 mg/kg i.p.): most active
- Inhibition of the diazepam-induced amnesia % ([4]; 0.1 mg/kg p.o.): 79%
- Inhibition of the diazepam-induced amnesia % ([4]; 10.0 mg/kg p.o.): 119%
- antiamnesic activity, in words ([4]; diazepam-induced anterograde amnesia, 0.1 and 10 mg/kg p.o.): particularly effective; also recorded: significant protective effect in both doses used and an activity by far exceeding that of vinpocetine; also recorded: most active in this field
- antiischemic effect, in words [5]: can be measured after oral administration, too
- activity on focal ischemia models, in words [6]: active
- protective action, in words [7]: dose-dependent protective action
- protection against ischemia-induced injury of memory, in words [8]: protected against the ischemia-induced injury of memory
- antiamnesic activity, in words [9]: could well be measured in rats

From patent publication US6093720A, “Trans apovincaminic acid ester derivatives” (Richter Gedeon Vegyeszeti GmbH, priority 1995, dated 2000)
